PMC10385968, “Enzymatic Characterization of a Novel HSL Family IV Esterase EstD04 from Pseudomonas sp. D01 in Mealworm Gut Microbiota” (Molecules, 2023)

Test system: T1, EstD04
T1 construct: C-terminal His6 tag (kept), pET-21a, E. coli BL21(DE3); catalytic triad Ser160/Glu253/His283; gene PCR-amplified with primers from P. nitroreducens homologue CEG18-11055 (homologue, not this protein)
Experiment: p-nitrophenol release at […] nm, Lineweaver-Burk
Type: biochemical, Pseudomonas sp. D01
Conditions: pH 8.0, 40 °C, 50 mM potassium phosphate; 0.25-2 mM substrate

CCCC(=O)Oc1ccc([N+](=O)[O-])cc1 [p-NPC4, p-nitrophenyl butyrate]
Km: 488 ± 1 µM
